Experiments:
Orco-Or47a = target: T1, Orco-Or47a (Drosophila melanogaster, UniProt P81921+Q9VNB5); experiment: Response after rehydration with cycloheximide treatment, Orco-Or47a stable expression cell line; type: cell-based; set-up: remnant residues; expressed in transfected cells; host or cells: Pv11 cells (Polypedilum vanderplanki), CRIS-PITCh knock-in at the Pv.00443 locus downstream of the 121 promoter, Zeocin selection and single-cell sorting
T1 sequence (Q9VNB5 1-486): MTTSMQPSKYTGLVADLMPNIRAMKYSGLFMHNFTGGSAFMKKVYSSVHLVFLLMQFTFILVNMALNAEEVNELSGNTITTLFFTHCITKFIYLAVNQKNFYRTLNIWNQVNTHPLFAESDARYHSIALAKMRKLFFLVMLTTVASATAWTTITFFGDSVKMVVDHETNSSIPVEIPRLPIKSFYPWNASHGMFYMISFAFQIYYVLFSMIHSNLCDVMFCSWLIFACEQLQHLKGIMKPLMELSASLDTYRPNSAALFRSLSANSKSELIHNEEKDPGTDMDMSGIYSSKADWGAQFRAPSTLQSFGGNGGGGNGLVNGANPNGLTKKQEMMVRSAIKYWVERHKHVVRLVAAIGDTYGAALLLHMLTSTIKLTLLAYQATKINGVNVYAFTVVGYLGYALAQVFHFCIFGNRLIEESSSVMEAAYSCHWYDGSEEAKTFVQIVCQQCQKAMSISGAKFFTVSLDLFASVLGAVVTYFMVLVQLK
T1 sequence (P81921 1-385): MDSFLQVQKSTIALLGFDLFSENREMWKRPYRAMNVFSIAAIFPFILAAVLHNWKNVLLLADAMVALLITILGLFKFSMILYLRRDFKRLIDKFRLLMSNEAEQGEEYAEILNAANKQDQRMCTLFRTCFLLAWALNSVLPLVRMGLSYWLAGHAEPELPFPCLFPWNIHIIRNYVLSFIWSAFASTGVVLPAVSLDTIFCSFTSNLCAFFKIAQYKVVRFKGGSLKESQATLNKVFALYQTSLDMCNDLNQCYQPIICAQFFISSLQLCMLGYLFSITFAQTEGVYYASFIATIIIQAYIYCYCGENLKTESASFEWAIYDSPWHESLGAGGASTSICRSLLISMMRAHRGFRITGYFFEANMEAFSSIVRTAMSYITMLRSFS
Experimental: 7. Confirmation that exogenous membrane protein responses in Orco-Or47a stable expression cell lines immediately after rehydration are not due to de novo protein synthesis. To confirm that the membrane protein response of the Orco-Or47a stable expression cell line immediately after rehydration was not due to de novo protein synthesis, cells were treated with cycloheximide (CHX, a protein synthesis inhibitor).
A previous study reported that 0.35 mM of cycloheximide is able to inhibit protein production in Pv11 cells. Therefore, also in this experiment, cycloheximide was dissolved in IPL-41 medium so that the cycloheximide concentration was 0.35 mM. An IPL-41 medium with 0.01 mM, 0.07 mM and 0.7 mM cycloheximide was also prepared. The rehydration of dried cells was performed using 1 ml of I PL-41 medium containing cycloheximide. One hour after rehydration and 24 hours after rehydration, the same operation as in 3.6 above was performed, and the fluorescence intensity was measured and analyzed. The ΔF/F0 was as described above. FIG. 7A and FIG. 7B are graphs showing changes in fluorescence intensity of the Orco-Or47a stable expression cell line response to VUAA1 and pentyl acetate, respectively, one hour after drying and rehydration. FIGS. 7C and 7D are graphs showing changes in fluorescence intensity, respectively, in response to VUAA1 and pentyl acetate of Orco-Or47a stable expression cell lines 24 hours after drying and rehydration.

Orco and Or47a = target: T2, Orco and Or47a (Drosophila melanogaster, UniProt P81921+Q9VNB5); experiment: Fluorescence on stimulation of Pv11 transient expression strain (GCaMP6f, Orco, Or47a); type: cell-based; details: fluorescence microscope, DMSO negative control
T2 construct: expressed in transfected cells; host or cells: Pv11 cells (Polypedilum vanderplanki)
T2 sequence (Q9VNB5 1-486): T1 sequence (Q9VNB5 1-486)
T2 sequence (P81921 1-385): T1 sequence (P81921 1-385)
Text: 1. Transient expression strain preparation. GCaMP6f cDNA was amplified by PCR in a conventional manner, and a pPv121-GcaMP6f vector was produced by inserting the amplified DNA sequence (SEQ ID NO: 2) encoding GcaMP6f downstream of a 121 promoter of a pPv121-MCS vector (Tokumoto et. Al., doi: https://doi. Org/10.1101/2020.05.29.123570 “Development of a Tet-On inducible expression system for the anhydrobiotic cell line, Pv11”). Similarly, the cDNA of Orco derived from Drosophila melanogaster was amplified by PCR by a conventional method, and a pPv121-Orco vector was generated by inserting the amplified Orco-encoding DNA sequence (SEQ ID NO:3) downstream of the 121 promoter of the pPv121-MCS vector. […]
The resulting pPv121-GcaMP6f vector, pPv121-Orco vector, and pPv121-Or47a vector were simultaneously transfected to Pv11 cells (see Miyata Y., et. Al, Scientific Reports, 9 (1), 7004. (2019)), and a Pv11 transient expression strain was produced that transiently expressed the GaMP6f, Orco, and Or47a proteins. If the membrane proteins Orco and Or47a were expressed and GcaMP6f was expressed in the cytoplasm, then by stimulating Pv11 transient expression strains with Orco or Or47a agonists or ligands, calcium ion influxed into the cells, and the fluorescence of GcaMP6f was observed. […]

[1] = 1 hour after drying-rehydration
[2] = 24 hours after rehydration, without CHX

Structure (SMILES)	response as change in fluorescence intensity (ΔF/F0) (Orco-Or47a; [1])	response as change in fluorescence intensity (ΔF/F0) (Orco-Or47a; [2])	fluorescence of GCaMP6f on stimulation (Orco and Or47a)
CCCCCOC(C)=O [pentyl acetate]	specific responses	strongly enhanced	fluorescence was observed
CCc1ccc(NC(=O)CSc2nnc(-c3cccnc3)n2CC)cc1 [VUAA1, N-(4-ethylphenyl)-2-{[4-ethyl-5-(pyridin-3-yl)-4H-1,2,4-triazol-3-yl]sulfanyl}acetamide]	specific responses	strongly enhanced	fluorescence was observed

Reference: US20250197799A1, “CELLS DERIVED FROM POLYPEDILUM VANDERPLANKI AND ODOR SENSOR EQUIPPED THEREWITH” (University of Maryland, College Park, priority 2022, published 2025)
